# Patent US20170182047A9, “Post-Translational Regulation of Catalytic Activities of Cytochrome P450 46A1 and Uses Thereof” (The Board of Regents of the University of Texas System, priority 2007, published 2017)
# Where a name gives a salt, the structure may show the parent alone. Read-outs that look alike come from different tables or passages of the source.
# What was measured:
# full-length CYP46A1 [1] = molecular target: T1, full-length CYP46A1 (Homo sapiens, UniProt Q9Y6A2); test: Inhibition/stimulation of cholesterol hydroxylase activity at fixed 43 μM test compound; assay type: biochemical; details: for inhibition of cholesterol hydroxylation (in words): FIG. 4A-4C; for CHO hydroxylation: remaining activity, None = 100, 43 μM added steroid; for Activity: cholesterol hydroxylation by CYP46A1, % of no compound; for inhibition at 43 µM: read-out: inhibition of the CYP46A1
# T1 sequence (Q9Y6A2 whole entry): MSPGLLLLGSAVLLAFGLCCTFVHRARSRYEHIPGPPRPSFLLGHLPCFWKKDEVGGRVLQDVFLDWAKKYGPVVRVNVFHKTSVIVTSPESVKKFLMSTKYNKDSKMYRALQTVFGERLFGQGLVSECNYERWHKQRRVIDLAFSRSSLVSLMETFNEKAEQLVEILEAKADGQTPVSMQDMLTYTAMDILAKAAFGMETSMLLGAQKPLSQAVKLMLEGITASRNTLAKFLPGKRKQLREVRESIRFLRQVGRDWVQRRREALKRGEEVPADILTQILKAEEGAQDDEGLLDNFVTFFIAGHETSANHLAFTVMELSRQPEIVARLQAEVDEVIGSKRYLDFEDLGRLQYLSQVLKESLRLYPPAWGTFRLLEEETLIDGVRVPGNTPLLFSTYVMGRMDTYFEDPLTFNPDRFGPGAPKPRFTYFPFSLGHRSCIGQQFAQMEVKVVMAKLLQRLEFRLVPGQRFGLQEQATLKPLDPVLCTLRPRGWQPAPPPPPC
# full-length CYP46A1 [2] = molecular target: T1, full-length CYP46A1; test: Kinetic studies, reconstituted system with cytochrome P450 reductase, full-length CYP46A1; details: compound as substrate; for kcat: Full-length CYP46A1 with C-terminal 4x His-tag, 37° C.
# Procedure: (§2) The ability of recombinant CYP46A1 to metabolize CH-3S was tested using the reconstituted with cytochrome P450 reductase in vitro system. After termination of the enzyme reaction, the substrate and products were extracted, solvolyzed, converted into trimethylsilyl ethers and analyzed by gas chromatography-mass spectrometry as described (23). […] The reaction conditions were optimized for the formation of only one product.
# (§3) The reconstituted system (1 ml) contained 0.1-0.25 μM P450, 0.5 μM NADPH cytochrome P450 oxidoreductase, varying concentrations of cold substrate (1-75 μM), 250,000 cpm of radiolabeled substrate, and 2U of catalase. […] The organic phase was isolated, evaporated, dissolved in acetonitrile, and subjected to HPLC. […] Substrate metabolism was <18% and linear with reaction time and enzyme concentration.
# Δ(2-50)CYP46A1dH = Δ(2-50)CYP46A1dH (Homo sapiens, UniProt Q9Y6A2); test: Kinetic studies, reconstituted system with cytochrome P450 reductase, truncated CYP46A1; details: compound as substrate; for kcat: Δ(2-50) CYP46A1 with C-terminal 4x His-tag, 37° C.
# Δ(2-50)CYP46A1dH, sequence (Q9Y6A2 with tags, fused parts or gaps): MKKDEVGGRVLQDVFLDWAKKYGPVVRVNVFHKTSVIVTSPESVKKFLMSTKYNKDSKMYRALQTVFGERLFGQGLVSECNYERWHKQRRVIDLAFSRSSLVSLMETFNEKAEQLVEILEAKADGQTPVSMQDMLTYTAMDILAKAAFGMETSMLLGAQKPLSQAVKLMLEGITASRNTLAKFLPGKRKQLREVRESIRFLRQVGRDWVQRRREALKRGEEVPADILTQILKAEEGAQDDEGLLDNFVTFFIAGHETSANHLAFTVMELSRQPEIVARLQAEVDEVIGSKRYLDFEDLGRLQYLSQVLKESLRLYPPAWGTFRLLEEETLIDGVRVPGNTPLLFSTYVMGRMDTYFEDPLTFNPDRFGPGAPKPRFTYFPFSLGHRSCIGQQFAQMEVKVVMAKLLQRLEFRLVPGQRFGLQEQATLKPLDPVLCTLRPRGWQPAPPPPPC
# Procedure: as §2, §3
# CYP46A1 [3] = molecular target: T2, CYP46A1 (Homo sapiens, UniProt Q9Y6A2); test: Spectral binding studies; parameters: fused on or other part: C-terminal 4xHis tag (dH); details: Table 2
# Procedure: (§1) Titrations of CYP46A1dH were carried out in 50 mM KPi, pH 7.2, containing 100 mM NaCl and 0.02% Cymal-6. Steroids were added from 0.2-5 mM stocks in 2.5-45% aqueous 2-hydroxypropyl-p-cyclodextrin; clobenpropit, thioperamide, phenacetin, acetaminophen, 4′-(2-hydroxyethoxy)-acetanilide, quinine, quinidine, lansoprazole, and dapsone were dissolved in water, and tranylcypromine in 50% MetOH. The Kd and maximal absorbance change were estimated by non-linear least squares fitting using the quadratic form of the single-site binding equation (30).
# Target sequence in this assay (Q9Y6A2 whole entry, the tested form may be a part): as the sequence (Q9Y6A2 whole entry) above
# CYP46A1 [4] = molecular target: T2, CYP46A1; test: Spectral binding studies; parameters: 4×His (C)
# Procedure: as §1
# Target sequence in this assay (Q9Y6A2 with tags, fused parts or gaps): as the sequence (Q9Y6A2 with tags, fused parts or gaps) above
# CYP46A1 [5] = molecular target: T2, CYP46A1; test: In vitro IC50 and Ki for CYP46A1-catalysed hydroxylation; assay type: biochemical; parameters: Recombinant full-length human CYPs 46A1 and 27A1 and bovine CYP11A1 were expressed and purified; made in house; details: Ki = IC50/2 assuming competitive inhibition; 5.4 μM cholesterol (at Km); read-out: Ki
# Procedure: Cholesterol hydroxylation by CYP46A1 was assayed for 20 min at 37° C. in 1 ml of 50 mM KPi, pH 7.2, containing 100 mM NaCl, 0.02% Cymal 6, 40 μg dilauroylglycerol-3-phosphatidylcholine and 2U of catalase. […] The enzymatic reaction was initiated by NADPH (final 1 mM) and terminated by vortexing with 2 ml of CH2Cl2. The organic phase was isolated, evaporated, dissolved in methanol, and subjected to HPLC. […] In addition, the Ki for cholesterol 24-hydroxylation was estimated assuming a model of competitive inhibition.
# Target sequence in this assay (Q9Y6A2 whole entry, the tested form may be a part): as the sequence (Q9Y6A2 whole entry) above
# [6] = 2.7 μM cholesterol, 43 μM compound
# [7] = 2.7 μM cholesterol, 43 μM compound, FIG. 4B, 4D, 4E
compound,measurement,setting,value
"Clc1ccc(-c2c[nH]cn2)cc1 [4-CPi, 4-(4-chlorophenyl)imidazole]",inhibition of cholesterol hydroxylation (in words),full-length CYP46A1 [1]; [6],significant inhibition
"CC(C)[C@@H](O)CC[C@@H](C)[C@H]1CC[C@H]2[C@@H]3CC=C4C[C@@H](O)CC[C@]4(C)[C@H]3CC[C@]12C [24OH—CH, 24S-hydroxycholesterol]",Km,full-length CYP46A1 [2]; Full-length CYP46A1,3.9 µM
same,kcat,full-length CYP46A1 [2],0.0153 s⁻¹
same,Km,Δ(2-50)CYP46A1dH; Δ(2-50) CYP46A1,1.5 µM
same,kcat,Δ(2-50)CYP46A1dH,0.0142 s⁻¹
"CC(C)CCC[C@@H](C)[C@H]1CC[C@H]2[C@@H]3CC=C4C[C@@H](OS(=O)(=O)O)CC[C@]4(C)[C@H]3CC[C@]12C [Cholesterol-SO4, cholesterol sulfate]",kcat,full-length CYP46A1 [2],0.00767 s⁻¹
same,Kd,CYP46A1 [3],50 ± 3 nM
same,kcat,Δ(2-50)CYP46A1dH,0.0417 s⁻¹
same,Kd,CYP46A1 [4],7 nM
CC(C)CCC[C@@H](C)[C@H]1CC[C@H]2[C@@H]3CC=C4C[C@@H](O)CC[C@]4(C)[C@H]3CC[C@]12C [Cholesterol],CHO hydroxylation,full-length CYP46A1 [1]; 2.7 μM cholesterol,27 ± 3%
same,Kd,CYP46A1 [3],670 ± 20 nM
same,Kd,"CYP46A1 [4]; Δ(2-50)CYP46A1dH, read-out: estimated Kd",100 nM
C[C@]12CC[C@@H]3c4ccc(O)cc4CC[C@H]3[C@@H]1CC[C@@H]2O [Estradiol],CHO hydroxylation,full-length CYP46A1 [1]; 2.7 μM cholesterol,32 ± 3%
Cc1cccc(C)c1OCC(C)N (stereo not shown) [Mexiletine],Activity,full-length CYP46A1 [1]; 43 μM compound,107 ± 3%
"CC(=O)Nc1ccc(OCCO)cc1 [Phenacetin analog 1, 4′-(2-hydroxyethoxy)-acetanilide]",increase (stimulation) of cholesterol 24-hydroxylation,full-length CYP46A1 [1]; 43 μM compound,45%
same,Activity,full-length CYP46A1 [1]; 43 μM compound,145 ± 5%
CCOc1ccc(NC(C)=O)cc1 [Phenacetin],Activity,full-length CYP46A1 [1]; 43 μM compound,135 ± 5%
CC(=O)[C@H]1CC[C@H]2[C@@H]3CC=C4C[C@@H](O)CC[C@]4(C)[C@H]3CC[C@]12C [Pregnenolone],CHO hydroxylation,full-length CYP46A1 [1]; 2.7 μM cholesterol,32 ± 1%
same,Spectral Kd,CYP46A1 [3],"Not determined, no spectral"
C[C@]12CC[C@H]3[C@@H](CCC4=CC(=O)CC[C@@]43C)[C@@H]1CC[C@@H]2O [Testosterone],CHO hydroxylation,full-length CYP46A1 [1]; 2.7 μM cholesterol,49 ± 4%
CN/C(=N/CCSCc1nc[nH]c1C)NC#N [cimetidine],inhibition at 43 µM,full-length CYP46A1 [1]; [7],> 90%
NC(=NCc1ccc(Cl)cc1)SCCCc1cnc[nH]1 [clobenpropit],inhibition at 43 µM,full-length CYP46A1 [1],> 90%
Clc1ccccc1C(c1ccccc1)(c1ccccc1)n1ccnc1 [clotrimazole],inhibition of cholesterol hydroxylation (in words),full-length CYP46A1 [1]; [6],significant inhibition
NC(N)=Nc1nc(CSCCC(N)=NS(N)(=O)=O)cs1 [famotidine],inhibition of cholesterol hydroxylation (in words),full-length CYP46A1 [1]; [6],inhibited cholesterol hydroxylation
CNC(=C[N+](=O)[O-])NCCSCc1csc(CN(C)C)n1 [nizatidine],inhibition of cholesterol hydroxylation (in words),full-length CYP46A1 [1]; [6],inhibited cholesterol hydroxylation
CNC(=C[N+](=O)[O-])NCCSCc1ccc(CN(C)C)o1 [ranitidine],inhibition at 43 µM,full-length CYP46A1 [1]; [7],> 90%
S=C(NC1CCCCC1)N1CCC(c2cnc[nH]2)CC1 [thioperamide],inhibition of cholesterol hydroxylation (in words),full-length CYP46A1 [1]; [6],inhibited cholesterol hydroxylation
Acetaminophen,Activity,full-length CYP46A1 [1]; 43 μM compound,132 ± 4%
DHEA,CHO hydroxylation,full-length CYP46A1 [1]; 2.7 μM cholesterol,58 ± 3%
DHEA sulfate [DHEA-SO4],CHO hydroxylation,full-length CYP46A1 [1]; 2.7 μM cholesterol,33 ± 3%
estradiol sulfate [Estradiol-SO4],CHO hydroxylation,full-length CYP46A1 [1]; 2.7 μM cholesterol,27 ± 2%
pregnenolone sulfate [Pregnenolone-SO4],CHO hydroxylation,full-length CYP46A1 [1]; 2.7 μM cholesterol,8 ± 2%
same,Ki,CYP46A1 [5],2500 nM
testosterone sulfate [Testosterone-SO4],CHO hydroxylation,full-length CYP46A1 [1]; 2.7 μM cholesterol,40 ± 2%
